Data taken from patent US20240116985A1, “STAPLED PEPTIDES AND METHODS THEREOF” (priority 2020, published 2024).
Like-named read-outs stand apart in the source and are kept apart here.

Biological target: T1, full-length beta-Catenin (Uniprot ID P35222) (Homo sapiens, UniProt P35222)
T1 construct: 10 nM full-length beta-Catenin (Uniprot ID P35222)
T1 sequence (P35222 1-781): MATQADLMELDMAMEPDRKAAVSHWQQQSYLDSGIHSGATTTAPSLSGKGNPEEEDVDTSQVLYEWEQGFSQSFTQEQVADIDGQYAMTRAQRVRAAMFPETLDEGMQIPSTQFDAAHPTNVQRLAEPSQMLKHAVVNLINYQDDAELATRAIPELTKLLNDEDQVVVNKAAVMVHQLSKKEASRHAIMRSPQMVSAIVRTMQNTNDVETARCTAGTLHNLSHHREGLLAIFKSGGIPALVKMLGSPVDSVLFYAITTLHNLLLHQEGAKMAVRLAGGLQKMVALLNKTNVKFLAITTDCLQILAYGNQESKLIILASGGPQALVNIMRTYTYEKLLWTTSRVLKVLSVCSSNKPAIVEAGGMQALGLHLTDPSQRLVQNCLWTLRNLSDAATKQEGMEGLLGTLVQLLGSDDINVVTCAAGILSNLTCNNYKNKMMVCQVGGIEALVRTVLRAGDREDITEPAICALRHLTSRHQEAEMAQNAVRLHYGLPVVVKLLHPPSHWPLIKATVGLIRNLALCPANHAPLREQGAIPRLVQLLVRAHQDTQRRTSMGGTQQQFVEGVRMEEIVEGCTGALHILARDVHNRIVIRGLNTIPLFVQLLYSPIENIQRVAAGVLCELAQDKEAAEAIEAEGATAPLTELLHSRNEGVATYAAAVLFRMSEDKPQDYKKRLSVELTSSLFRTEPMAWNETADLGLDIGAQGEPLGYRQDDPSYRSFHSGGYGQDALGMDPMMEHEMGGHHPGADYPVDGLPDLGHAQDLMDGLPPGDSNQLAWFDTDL
Assay: Fluorescence polarization IC50 (beta-catenin / 5FAM-TCF4 10-53 competition)
Type: binding
Conditions: read-out: beta-Catenin FP IC50

| IC50 (fluorescence polarization) | SMILES | IC50 |
| --- | --- | --- |
| 19 nM | CC(=O)N1CCC[C@]12CC=CCCCC1(CCCC=CCCCOC(=O)N3CC[C@@](C(=O)N[C@@H](Cc4ccsc4)C(=O)N[C@@H](Cc4c[nH]c5ccccc45)C(=O)N[C@@H](CCC(N)=O)C(N)=O)(C3)NC(=O)[C@H](CC(N)=O)NC(=O)[C@H](Cc3ccccc3)NC(=O)[C@H](C)NC(=O)[C@H](C)NC(=O)[C@H](CC(=O)O)NC(=O)[C@H](CC(=O)O)NC1=O)NC(=O)[C@H](CC(C)(C)C)NC(=O)[C@H](CC(=O)O)NC2=O (stereo partly drawn) [I-2175, Ac-PL3-Asp-Npg-B5-Asp-Asp-Ala-Ala-Phe-Asn-PyrS2-3Thi-Trp-Gln-NH2] | – |
| 87 nM | CC(=O)N1CCC[C@]12CC=CCCCC1(CCCC=CCCCOC(=O)N3CC[C@@](C(=O)N[C@@H](Cc4ccsc4)C(=O)N[C@@H](Cc4c[nH]c5cccc(Cl)c45)C(=O)N[C@@H](CCC(N)=O)C(N)=O)(C3)NC(=O)[C@H](CC(N)=O)NC(=O)[C@H](Cc3ccccc3)NC(=O)[C@H](C)NC(=O)[C@H](C)NC(=O)[C@H](CC(=O)O)NC(=O)[C@H](CC(=O)O)NC1=O)NC(=O)[C@H](CC(C)(C)C)NC(=O)[C@H](CC(=O)O)NC2=O (stereo partly drawn) [I-2176, Ac-PL3-Asp-Npg-B5-Asp-Asp-Ala-Ala-Phe-Asn-PyrS2-3Thi-4C1W-Gln-NH2] | – |
| 253 nM | CC(=O)N1CCC[C@]12CC=CCCCC1(CCCC=CCCCOC(=O)N3CC[C@@](C(=O)N[C@@H](Cc4ccsc4)C(=O)N[C@@H](Cc4c[nH]c5cccc(Cl)c45)C(=O)N[C@@H](CCC(N)=O)C(N)=O)(C3)NC(=O)[C@H](CC(C)C)NC(=O)[C@H](Cc3ccccc3)NC(=O)[C@H](C)NC(=O)[C@H](C)NC(=O)[C@H](CC(=O)O)NC(=O)[C@H](CC(=O)O)NC1=O)NC(=O)[C@H](CC(C)(C)C)NC(=O)[C@H](CC(=O)O)NC2=O (stereo partly drawn) [I-2177, Ac-PL3-Asp-Npg-B5-Asp-Asp-Ala-Ala-Phe-Leu-PyrS2-3Thi-4C1W-Gln-NH2] | – |
| 42 nM | CC(=O)N1CCC[C@]12CC=CCCCC1(CCCC=CCCCOC(=O)N3CC[C@@](C(=O)N[C@@H](Cc4ccsc4)C(=O)N[C@@H](Cc4c[nH]c5cccc(F)c45)C(=O)N[C@@H](CCC(N)=O)C(N)=O)(C3)NC(=O)[C@H](CC(N)=O)NC(=O)[C@H](Cc3ccccc3)NC(=O)[C@H](C)NC(=O)[C@H](C)NC(=O)[C@H](CC(=O)O)NC(=O)[C@H](CC(=O)O)NC1=O)NC(=O)[C@H](CC(C)(C)C)NC(=O)[C@H](CC(=O)O)NC2=O (stereo partly drawn) [I-2178, Ac-PL3-Asp-Npg-B5-Asp-Asp-Ala-Ala-Phe-Asn-PyrS2-3Thi-4FW-Gln-NH2] | – |
| 67 nM | CC(=O)N1CCC[C@]12CC=CCCCC1(CCCC=CCCCOC(=O)N3CC[C@@](C(=O)N[C@@H](Cc4ccsc4)C(=O)N[C@@H](Cc4c[nH]c5cccc(F)c45)C(=O)N[C@@H](CCC(N)=O)C(N)=O)(C3)NC(=O)[C@H](CC(C)C)NC(=O)[C@H](Cc3ccccc3)NC(=O)[C@H](C)NC(=O)[C@H](C)NC(=O)[C@H](CC(=O)O)NC(=O)[C@H](CC(=O)O)NC1=O)NC(=O)[C@H](CC(C)(C)C)NC(=O)[C@H](CC(=O)O)NC2=O (stereo partly drawn) [I-2179, Ac-PL3-Asp-Npg-B5-Asp-Asp-Ala-Ala-Phe-Leu-PyrS2-3Thi-4FW-Gln-NH2] | – |
| 2090 nM | CC(=O)N1CCC[C@]12CC=CCCCC1(CCCC=CCCCOC(=O)N3CC[C@@](C(=O)N[C@@H](Cc4ccsc4)C(=O)N[C@@H](Cc4c[nH]c5ncccc45)C(=O)N[C@@H](CCC(N)=O)C(N)=O)(C3)NC(=O)[C@H](CC(N)=O)NC(=O)[C@H](Cc3ccccc3)NC(=O)[C@H](C)NC(=O)[C@H](C)NC(=O)[C@H](CC(=O)O)NC(=O)[C@H](CC(=O)O)NC1=O)NC(=O)[C@H](CC(C)(C)C)NC(=O)[C@H](CC(=O)O)NC2=O (stereo partly drawn) [I-2180, Ac-PL3-Asp-Npg-B5-Asp-Asp-Ala-Ala-Phe-Asn-PyrS2-3Thi-7AzaW-Gln-NH2] | – |
| 2880 nM | CC(=O)N1CCC[C@]12CC=CCCCC1(CCCC=CCCCOC(=O)N3CC[C@@](C(=O)N[C@@H](Cc4ccsc4)C(=O)N[C@@H](Cc4c[nH]c5ncccc45)C(=O)N[C@@H](CCC(N)=O)C(N)=O)(C3)NC(=O)[C@H](CC(C)C)NC(=O)[C@H](Cc3ccccc3)NC(=O)[C@H](C)NC(=O)[C@H](C)NC(=O)[C@H](CC(=O)O)NC(=O)[C@H](CC(=O)O)NC1=O)NC(=O)[C@H](CC(C)(C)C)NC(=O)[C@H](CC(=O)O)NC2=O (stereo partly drawn) [I-2181, Ac-PL3-Asp-Npg-B5-Asp-Asp-Ala-Ala-Phe-Leu-PyrS2-3Thi-7AzaW-Gln-NH2] | – |
| – | CC(=O)N1CCC[C@]12CC=CCCCC1(CCCC=CCCCOC(=O)N3CC[C@@](C(=O)N[C@@H](Cc4ccsc4)C(=O)N[C@@H](Cc4csc5ccccc45)C(=O)NC(CCCCNC(=O)c4ccc5c(c4)B(O)OC5)C(N)=O)(C3)NC(=O)[C@H](CC(C)C)NC(=O)[C@H](Cc3ccccc3)NC(=O)[C@H](C)NC(=O)[C@H](C)NC(=O)[C@H](CN(CC(=O)O)CC(F)(F)F)NC(=O)[C@H](CC(=O)O)NC1=O)NC(=O)[C@H](CC(C)(C)C)NC(=O)[C@H](CC(=O)O)NC2=O (stereo partly drawn) [I-2186, Ac-PL3-Asp-Npg-B5-Asp-TfeGA-Ala-Ala-Phe-Leu-PyrS2-3Thi-BztA-BnBoroleK-NH2] | 459 nM |
| 41 nM | CC(=O)N1CCC[C@]12CC=CCCCC1(CCCC=CCCCOC(=O)N3CC[C@@](C(=O)N[C@@H](Cc4ccsc4)C(=O)N[C@@H](Cc4csc5ccccc45)C(=O)N[C@@H](CC(C)(C)C)C(N)=O)(C3)NC(=O)[C@H](CC(C)C)NC(=O)[C@H](Cc3ccccc3)NC(=O)[C@H](C)NC(=O)[C@H](CC(=O)N(C)C)NC(=O)[C@H](Cc3cccc(C(=O)O)c3)NC(=O)[C@H](CC(=O)O)NC1=O)NC(=O)[C@H](CC(C)(C)C)NC(=O)[C@H](CC(=O)O)NC2=O (stereo partly drawn) [I-2196, Ac-PL3-Asp-Npg-B5-Asp-3COOHF-Me2Asn-Ala-Phe-Leu-PyrS2-3Thi-BztA-Npg-NH2] | – |
| 2450 nM | CC(=O)N1CCC[C@]12CC=CCCCC1(CCCC=CCCOC(=O)N3CC[C@@](C(=O)N[C@@H](Cc4ccsc4)C(=O)N[C@@H](Cc4csc5ccccc45)C(=O)N[C@@H](CCC(N)=O)C(N)=O)(C3)NC(=O)[C@H](CC(N)=O)NC(=O)[C@H](Cc3ccccc3)NC(=O)[C@H](C)NC(=O)[C@H](C)NC(=O)[C@H]([C@@H](C)O)NC(=O)[C@H](CC(N)=O)NC1=O)NC(=O)[C@H](CC(C)(C)C)NC(=O)[C@H](CC(=O)O)NC2=O (stereo partly drawn) [I-2197, Ac-PL3-Asp-Npg-B5-Asn-Thr-Ala-Ala-Phe-Asn-PyrS1-3Thi-BztA-Gln-NH2] | – |
| 1470 nM | CC(=O)N1CCC[C@]12CC=CCCCC1(CCCC=CCCOC(=O)N3CC[C@@](C(=O)N[C@@H](Cc4ccsc4)C(=O)N[C@@H](Cc4csc5ccccc45)C(=O)N[C@@H](CCC(N)=O)C(N)=O)(C3)NC(=O)[C@H](CC(N)=O)NC(=O)[C@H](Cc3ccccc3)NC(=O)[C@H](C)NC(=O)[C@H](C)NC(=O)[C@H]([C@@H](C)O)NC(=O)[C@H](CC(N)=O)NC1=O)NC(=O)[C@H](CC(C)(C)C)NC(=O)[C@H](CC(=O)O)NC2=O (stereo partly drawn) [I-2198, Ac-PL3-Asp-Npg-B5-Asn-Thr-Ala-Ala-Phe-Asn-PyrS1-3Thi-BztA-Gln-NH2] | – |
| 927 nM | CC(=O)N1CCC[C@]12CC=CCCCC1(CCCC=CCCCCOC(=O)N3CC[C@@](C(=O)N[C@@H](Cc4ccsc4)C(=O)N[C@@H](Cc4csc5ccccc45)C(=O)N[C@@H](CCC(N)=O)C(N)=O)(C3)NC(=O)[C@H](CC(N)=O)NC(=O)[C@H](Cc3ccccc3)NC(=O)[C@H](C)NC(=O)[C@H](C)NC(=O)[C@H]([C@@H](C)O)NC(=O)[C@H](CC(N)=O)NC1=O)NC(=O)[C@H](CC(C)(C)C)NC(=O)[C@H](CC(=O)O)NC2=O (stereo partly drawn) [I-2199, Ac-PL3-Asp-Npg-B5-Asn-Thr-Ala-Ala-Phe-Asn-PyrS3-3Thi-BztA-Gln-NH2] | – |
| 8400 nM | CC(=O)N1CCC[C@]12CC=CCCCC1(CCCC=CCCCCC[C@@](C)(C(=O)N[C@@H](Cc3ccsc3)C(=O)N[C@@H](Cc3csc4ccccc34)C(=O)N[C@@H](CCC(N)=O)C(N)=O)NC(=O)[C@H](CC(N)=O)NC(=O)[C@H](Cc3ccccc3)NC(=O)[C@H](C)NC(=O)[C@H](C)NC(=O)[C@H]([C@@H](C)O)NC(=O)[C@H](CC(N)=O)NC1=O)NC(=O)[C@H](CC(C)(C)C)NC(=O)[C@H](CC(=O)O)NC2=O (stereo partly drawn) [I-2200, Ac-PL3-Asp-Npg-B5-Asn-Thr-Ala-Ala-Phe-Asn-S7-3Thi-BztA-Gln-NH2] | – |
| 60 nM | CC(=O)N1CCC[C@]12CC=CCCCC1(CCCC=CCCCOC(=O)N3CC[C@@](C(=O)N[C@@H](Cc4ccsc4)C(=O)N[C@@H](Cc4csc5ccccc45)C(=O)N[C@@H](C)C(N)=O)(C3)NC(=O)[C@H](CC(C)C)NC(=O)[C@H](Cc3ccccc3)NC(=O)[C@H](C)NC(=O)C(C)(C)NC(=O)[C@H](Cc3cc(C(=O)O)cc(C(F)(F)F)c3)NC(=O)[C@H](CC(=O)O)NC1=O)NC(=O)[C@H](CC(C)(C)C)NC(=O)[C@H](CC(=O)O)NC2=O (stereo partly drawn) [I-2212, Ac-PL3-Asp-Npg-B5-Asp-5F3Me3COOHF-Aib-Ala-Phe-Leu-PyrS2-3Thi-BztA-Ala-NH2] | – |
| 5250 nM | CC(=O)N1CCC[C@]12CC=CCCCC1(CCCC=CCOC(=O)N(C)CC[C@@](C)(C(=O)N[C@@H](Cc3ccsc3)C(=O)N[C@@H](Cc3csc4ccccc34)C(=O)N[C@@H](CCC(N)=O)C(N)=O)NC(=O)[C@H](CC(N)=O)NC(=O)[C@H](Cc3ccccc3)NC(=O)[C@H](C)NC(=O)[C@H](C)NC(=O)[C@H]([C@@H](C)O)NC(=O)[C@H](CC(N)=O)NC1=O)NC(=O)[C@H](CC(C)(C)C)NC(=O)[C@H](CC(=O)O)NC2=O (stereo partly drawn) [I-2213, Ac-PL3-Asp-Npg-B5-Asn-Thr-Ala-Ala-Phe-Asn-SdN-3Thi-BztA-Gln-NH2] | – |
